Test results: PubChem BioAssay (NCI)
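Values below derive from 48-hour exposures of cells grown in 96-well plates, with endpoints linearly interpolated between the two concentrations bracketing the appropriate inhibition level. GI50 marks 50% less growth. TGI denotes the concentration required for complete inhibition of growth.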

Tests used:
Experiment in all cases: inhibition of tumour cell growth, NCI panel, 48 h
CAKI-1 renal = tested on: CAKI-1 renal
HL-60(TB) leukemia = tested on: HL-60(TB) leukemia
K-562 leukemia = tested on: K-562 leukemia
MOLT-4 leukemia = tested on: MOLT-4 leukemia
SK-MEL-28 melanoma = tested on: SK-MEL-28 melanoma
U251 CNS = tested on: U251 CNS
DU-145 prostate = tested on: DU-145 prostate
SF-268 CNS = tested on: SF-268 CNS
T-47D breast = tested on: T-47D breast
HCC-2998 colon = tested on: HCC-2998 colon

Structure (SMILES) | TGI (CAKI-1 renal) [µM] | TGI (HL-60(TB) leukemia) [µM] | TGI (K-562 leukemia) [µM] | TGI (MOLT-4 leukemia) [µM] | TGI (SK-MEL-28 melanoma) [µM] | TGI (U251 CNS) [µM] | GI50 (CAKI-1 renal) [µM] | GI50 (DU-145 prostate) [µM] | TGI (DU-145 prostate) [µM] | GI50 (HL-60(TB) leukemia) [µM] | GI50 (K-562 leukemia) [µM] | GI50 (MOLT-4 leukemia) [µM] | GI50 (SF-268 CNS) [µM] | TGI (SF-268 CNS) [µM] | GI50 (SK-MEL-28 melanoma) [µM] | GI50 (T-47D breast) [µM] | TGI (T-47D breast) [µM] | GI50 (U251 CNS) [µM] | GI50 (HCC-2998 colon) [µM] | TGI (HCC-2998 colon) [µM]
NCCCCCCNCc1cccc2ccccc12 | > 100 | > 100 | 51.1 | > 100 | > 100 | > 100 |  |  |  |  |  |  |  |  |  |  |  |  |  | 
CC1=C(C)C2(O)C(=C(C)C1=O)/C(=C(/O)c1ccccc1)c1nc3ccccc3n12 (centres undefined) | 55.9 | 56.7 | 52 | 72.3 | 49.4 | 58.2 | 17.3 | 26.8 | 68.6 | 18.3 | 24.5 | 24.6 | 35.7 | > 100 | 20.6 | 14.5 | 33.1 | 22.1 |  | 
C=C1C(=O)O[C@H]2[C@H]1CC/C(COC(=O)NCCc1c[nH]c3ccc(Cl)cc13)=C\CC[C@@]1(C)O[C@@H]21 | 2.82 |  | 5.95 | 5.27 | 3.43 | 3.31 | 1.48 | 1.61 | 3.25 |  | 1.1 | 1.71 | 1.77 | 3.37 | 1.79 |  |  | 1.8 | 1.96 | 4.03
COC1OC(C)C2OC(C)(C)OC2C1OC(C)=O (centres undefined) | > 100 | > 100 | > 100 | > 100 | > 100 | > 100 |  |  |  |  |  |  |  | > 100 |  |  |  |  |  | > 100
Cc1ccc(C)c(NC(=O)CC2SC(=Nc3ccccc3Cl)NC2=O)c1 (centres undefined) | > 100 | > 100 |  | > 100 | > 100 | > 100 |  |  |  |  |  |  |  | > 100 |  |  |  |  |  | > 100
C=CCOC(=O)C1CCC(=O)N1C(=O)C(Cl)Cl (centres undefined) | > 100 | > 100 | > 100 | > 100 | > 100 | > 100 |  |  |  |  |  |  |  | > 100 |  |  |  |  |  | > 100
COc1cc2c(cc1C1=NC(C)(C)CO1)OCO2 | > 100 | > 100 | > 100 | > 100 | > 100 | > 100 |  |  |  |  |  |  |  | > 100 |  |  |  |  |  | 
CN(C)CCNC(=O)c1cccc2ccc(-c3ccc(-c4ccccc4)cc3)nc12 | 11 | 4.23 | 5.64 | 5.16 | 3.29 | 4.65 |  |  |  |  |  |  |  | 10.4 |  |  |  |  |  | 3.3
O=C(/C=C/C12c3ccccc3C(c3ccccc31)C1C(=O)NC(=O)C12)c1ccc(Cl)cc1 (centres undefined) | 2.52 | 8.86 | > 100 | 15.5 | 3.37 | 2.99 | 1.24 | 1.67 | 3.26 | 1.47 | 1.99 | 1.7 | 1.99 | 5.31 | 1.8 |  |  | 1.52 | 1.69 | 3.37
CCn1c2c(c3ccccc31)C(c1ccccc1)CC1C(=O)N(c3ccccc3)C(=O)C21 (centres undefined) | > 100 | > 100 | > 100 | > 100 | > 100 |  |  |  |  |  |  |  |  | > 100 |  |  |  |  |  | > 100
CCCCCCCCCCCCCC(=O)CSCCNC(=O)CCNC(=O)[C@@H](O)C(C)(C)COP(=O)(O)OP(=O)(O)OCC1OC(n2cnc3c(N)ncnc32)C(O)C1OP(=O)(O)O (some centres undefined) |  | 51.4 |  |  | 34.3 | 39.2 |  |  |  |  |  |  |  | 47.7 |  |  |  |  |  | 35.7
COc1ccc(/C=C\c2cc(OC)c(OC)c(OC)c2)cc1OCC(=O)Nc1ccc2nc(C)sc2c1 | 5.85 |  | > 100 | 5.68 | 13.1 | > 100 | 2.19 | 3.81 | 29.7 |  | 2.19 | 2.11 | 3.61 | 36.1 | 3.22 | 9.41 | 33.8 | 3.59 | 6.9 | > 100
CCOC(=O)C(CNc1ccc(O)cc1)NC(=O)c1ccccc1 (centres undefined) | > 100 | 73.3 | > 100 | > 100 | > 100 | > 100 |  |  |  |  |  |  |  | > 100 |  |  |  |  |  | > 100
COc1ccc(N(/C=C/C(=O)C(F)(F)F)CC(=O)c2ccc(Cl)cc2)cc1 | 29.6 |  | 43.1 | 55.5 | 36.2 | 26.7 | 9.88 | 19.8 | 40.4 |  | 13.6 | 15.4 | 16.3 | 34.9 | 18.1 | 21.9 | > 100 | 13.7 | 17 | 36.2
CC(C)(C)OC(=O)c1cccnc1/C=N/O | > 100 | > 100 | > 100 | > 100 | > 100 | > 100 |  |  |  |  |  |  |  | > 100 |  |  |  |  |  | 
C/C=C/COC(=O)CO[N+](=O)[O-] | > 100 | > 100 | > 100 | > 100 |  | > 100 |  |  |  |  |  |  |  | > 100 |  |  |  |  |  | > 100
COc1cc2c(=O)n(CCN(C)C)c3c4cc5c(cc4ccc3c2cc1OC)OCO5 |  | 3.74 | > 11.3 | 0.648 | 3.3 | 1.92 |  | 0.199 | 6.27 | 0.239 | 0.186 | 0.127 | 0.222 |  | 0.747 | 0.111 | 0.486 | 0.153 | 0.53 | 1.36
C#CC1(O)CCC2[C@@H]3CCc4cc(Oc5nc(F)nc(-c6c7ccccc7cn6C)n5)ccc4C3CC[C@@]21C (some centres undefined) | > 100 | > 100 | > 100 | > 100 | > 100 | > 100 |  |  |  |  |  |  |  | > 100 |  |  |  |  |  | > 100
CC(=O)c1cc(C(=O)c2ccc3c(c2)Sc2ccccc2N3)c2c(C)cccn12 |  | 0.977 | > 100 | > 100 | > 100 | 24 |  | 0.38 | > 34.8 | 0.296 | 0.112 | 0.556 | 0.915 | > 100 | 2.51 | 0.314 | > 68.5 | 0.325 | 1.65 | > 100
